Key:
Format in all cases: cell-based
[1] = tested on: T-47D cells; test: Inhibition of cell proliferation in T-47D cells (CCK-8); conditions: 6 days treatment, CCK-8 cell viability
In short: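 Viability by CCK-8 after a 6-day, 37 °C/5% CO2 exposure of T-47D cells (3,000/well, RPMI-1640 + 10% FBS) to graded PROTAC concentrations. Inhibition rates gave the IC50.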

[2] = biological target: T1, ERα (Homo sapiens, UniProt P03372); test: ERα degradation in MCF-7 cells (Western blot); parameters: host or cells: MCF-7; conditions: 4 hours
T1 sequence (P03372 1-595): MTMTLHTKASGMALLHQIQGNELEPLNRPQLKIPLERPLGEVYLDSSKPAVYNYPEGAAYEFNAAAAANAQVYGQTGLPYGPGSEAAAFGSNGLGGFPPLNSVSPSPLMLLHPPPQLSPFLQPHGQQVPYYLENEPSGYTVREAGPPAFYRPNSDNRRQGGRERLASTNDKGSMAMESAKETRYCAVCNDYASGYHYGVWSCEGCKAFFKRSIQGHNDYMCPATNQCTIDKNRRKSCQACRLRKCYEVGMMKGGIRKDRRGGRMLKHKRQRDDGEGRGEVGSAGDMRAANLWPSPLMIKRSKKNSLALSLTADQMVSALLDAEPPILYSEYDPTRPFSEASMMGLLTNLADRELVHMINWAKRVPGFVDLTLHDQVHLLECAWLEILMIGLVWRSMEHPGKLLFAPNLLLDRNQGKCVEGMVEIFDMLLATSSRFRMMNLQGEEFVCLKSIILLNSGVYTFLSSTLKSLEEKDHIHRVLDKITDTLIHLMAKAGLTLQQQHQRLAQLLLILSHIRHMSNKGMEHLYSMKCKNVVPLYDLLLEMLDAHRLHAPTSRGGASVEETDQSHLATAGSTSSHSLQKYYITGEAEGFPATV
Method: Test Example 4 Effect of PROTAC Compounds Disclosed in the Present Invention on ERα Degradation in MCF-7 Cells
MCF-7 (ATCC) cells were cultured in DMEM medium (11995-065, Gibco) containing 10% FBS (10099141C, Gibco) at 37°C and 5% CO2 until they entered the logarithmic growth phase. MCF-7 cells were plated at a density of 3×10^5 cells/well in a 6-well plate and incubated at 37°C, 5% CO2 for 24 hours. After cell attachment, 1µL of compound in dimethyl sulfoxide (final concentration 0.15-1000nM) was added and incubated for another 4 hours at 37°C, 5% CO2 incubator. After 4 hours, the culture medium was discarded, and each well was washed once with 1 mL of pre-chilled 1× DPBS. The cells were then lysed with 50 µL of RIPA lysis buffer (P0013B, Beyotime) and 1× protease inhibitor cocktail (P1005, Beyotime). After incubation on ice for 20 minutes, the cells were centrifuged at 14,000 g at 4°C for 30 minutes. The supernatant was carefully collected and analyzed for ERα protein levels by immunoblotting.
(§1) Western blotting: The total protein concentration in the collected cell lysate supernatant was determined using the BCA protein concentration assay kit (enhanced) (P0009, Beyotime). Based on the total protein concentration determined by BCA, the protein concentration was adjusted to 1 µg/µL using RIPA lysis buffer and 5× SDS-PAGE protein loading buffer (MB01015, GenScript). The protein was denatured in a 95°C water bath for 5 minutes. After denaturation, the condensed water on the tube wall was collected by centrifugation and used as the loading sample. 20µL of the loading sample (20 µg of total protein) was added to the sample well of a 12% precast gel (M00669, GenScript). Electrophoresis was performed at 100 V for 20 minutes, followed by switching to 150 V for 40 minutes. After electrophoresis, the proteins from the SDS-PAGE gel were transferred to a PVDF membrane at a constant voltage of 100 V for 60 minutes. After transfer, the PVDF membrane corresponding to the ERα protein and internal reference protein was cut and incubated in 1× QµickBlock blocking buffer (P0252, Beyotime) for 30 minutes at room temperature on a shaker. After blocking, the ERα primary antibody (1:1000, 8644S, CST) was added and incubated overnight at 4°C on a shaker. The PVDF membrane was washed three times with 1× TBST buffer for 5 minutes each. Rabbit IgG (H+L) secondary antibody (1:7500, SA5-35571, Invitrogen) was added and incubated for 1 hour at room temperature on a shaker. The membrane was then washed again three times with 1× TBST buffer for 5 minutes each. Finally, the membrane was imaged using a dual-color infrared laser imaging system (Odyssey DLx, LICOR). Protein maps were analyzed for grayscale value using Image Studio Lite software. The grayscale correction value for each sample was calculated using the formula: grayscale correction value = grayscale value of the target protein / grayscale value of the corresponding internal reference. Then the grayscale correction values of the compound group and the control group were compared to calculate the degradation rate of the compound. Table 4 Degradation rate of ERα by PROTAC compounds of the present invention and positive control in MCF-7 cells (%)

[3] = tested on: MCF-7 cells; test: Inhibition of cell proliferation in MCF-7 cells (CCK-8); conditions: MCF-7 cell proliferation, 6 days treatment
In short: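 IC50 from CCK-8 viability-based inhibition after 6-day treatment of MCF-7 cells (800 cells/well, 10% FBS DMEM, 37 °C, 5% CO2) with serially varied compound concentrations.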

[4] = biological target: T1, ERα; test: ERα degradation in T-47D cells (Western blot); conditions: 4 hours
Method: as §1
Test Example 5 Degradation of ERα by the PROTAC compounds disclosed in the present invention in T-47D cells
T-47D (ATCC) cells were cultured in PRMI-1640 medium (30-2001, ATCC) containing 10% FBS (10099141C, Gibco) at 37°C and 5% CO2 until they entered the logarithmic growth phase. T-47D cells were seeded at a density of 3×10^5 cells/well in a 6-well plate and incubated at 37°C, 5% CO2 for 24 hours. After cell attachment, 1 µL of compound dimethyl sulfoxide solution (final concentration 0.15-1000 nM) was added and incubated for another 4 hours at 37°C, 5% CO2 incubator. After 4 hours, the culture medium was discarded, and each well was washed once with 1 mL of pre-chilled 1× DPBS. The cells were then lysed with 50 µL of RIPA lysis buffer (P0013B, Beyotime) and 1× protease inhibitor cocktail (P1005, Beyotime). After incubation on ice for 20 minutes, the cells were centrifuged at 14,000 g at 4°C for 30 minutes. The supernatant was carefully collected and analyzed for ERα protein levels by immunoblotting. Table 5 Degradation rate of ERα by PROTAC compounds of the present invention and positive control sample in T-47D cells (%)

Compound	IC50 ([1]; Homo sapiens, T47D, 144 h)	Degradation rate of ERα in MCF-7 cells (%) ([2]; 1nM)	Degradation rate of ERα in MCF-7 cells (%) ([2]; 10nM)	IC50 ([3]; Homo sapiens, MCF7, 144 h)	Degradation rate of ERα in T-47D cells (%) ([4]; 1nM)	Degradation rate of ERα in T-47D cells (%) ([4]; 10nM)	IC50 [1]	IC50 [3]
O=C1CC[C@H](N2Cc3cc(N4CCN(CC5CCN(c6ccc([C@@H]7c8ccc(O)cc8CC[C@@H]7c7ccccc7)cc6)CC5)CC4)ccc3C2=O)C(=O)N1 [ARV-471, reference compound]	0.0017 nM	38%	76%	0.0017 nM	61%	85%	–	–
O=C1CC[C@H](NC(=O)c2ccc3c(c2F)OCC32CCN(C3CC4(CCN(c5ccc([C@@H]6c7ccc(O)cc7CC[C@@H]6c6ccccc6)cc5)CC4)C3)CC2)C(=O)N1 [ER-P-37, N-((S)-2,6-dioxopiperidin-3-yl)-7-fluoro-1'-(7-(4-((1R,2S)-6-hydroxy-2-phenyl-1,2,3,4-tetrahydronaphthalen-1-yl)phenyl)-7-azaspiro[3.5]nonan-2-yl)-2H-spiro[benzofuran-3,4'-piperidine]-6-carboxamide]	18.9 nM	-6%	-9%	1400 nM	6%	4%	–	–
O=C1CCC(N2Cc3c(ccc4c3OCC43CCC4(CC3)CN(C3CCC5(CC3)CCN(c3ccc([C@@H]6c7ccc(O)cc7CC[C@@H]6c6ccccc6)cc3)CC5)C4)C2=O)C(=O)N1 (stereo partly drawn) [ER-P-9]	1.96 nM	30%	71%	7.44 nM	46%	83%	–	–
O=C1CC[C@H](NC(=O)c2ccc3c(c2F)OCC32CCN(C3CCC4(CC3)CN(c3ccc([C@@H]5c6ccc(O)cc6CC[C@@H]5c5ccccc5)cc3)C4)CC2)C(=O)N1 [ER-P-38, N-((S)-2,6-dioxopiperidin-3-yl)-7-fluoro-1'-(2-(4-((1R,2S)-6-hydroxy-2-phenyl-1,2,3,4-tetrahydronaphthalen-1-yl)phenyl)-2-azaspiro[3.5]nonan-7-yl)-2H-spiro[benzofuran-3,4'-piperidine]-6-carboxamide]	18.6 nM	12%	-14%	505 nM	1%	3%	–	–
Cn1c(=O)n(C2CCC(=O)NC2=O)c2cc3c(cc21)C1(CCN(C[C@H]2CC[C@@H](OC4CCN(c5ccc([C@@H]6c7ccc(O)cc7CC[C@@H]6c6ccccc6)cc5)CC4)CC2)CC1)CO3 (stereo partly drawn) [ER-P-55, 3-(1'-(((1S,4S)-4-((1-(4-((1R,2S)-6-hydroxy-2-phenyl-1,2,3,4-tetrahydronaphthalen-1-yl)phenyl)piperidin-4-yl)oxy)cyclohexyl)methyl)-1-methyl-2-oxo-1,2-dihydro-3H,6H-spiro[benzofuro[5,6-d]imidazole-7,4'-piperidin]-3-yl)piperidine-2,6-dione]	0.18 nM	35%	69%	113 nM	62%	87%	–	–
C[C@@H]1Cc2cc(O)ccc2C(c2c(F)cc(N3CCC4(CC3)CC(N3CC5(CCC6(CC5)COc5c6ccc6c5CN(C5CCC(=O)NC5=O)C6=O)C3)C4)cc2F)N1CC(F)F (stereo partly drawn) [ER-P-28, 3-(1-(7-(4-((3R)-2-(2,2-difluoroethyl)-6-hydroxy-3-methyl-1,2,3,4-tetrahydroisoquinolin-1-yl)-3,5-difluorophenyl)-7-azaspiro[3.5]nonan-2-yl)-6"-oxo-6",8"-dihydro-2"H,7"H-dispiro[azetidine-3,1'-cyclohexane-4',3"-furo[2,3-e]isoindol]-7"-yl)piperidine-2,6-dione]	1.56 nM	38%	63%	< 0.256 nM	41%	59%	–	–
CN(c1ccc2c(c1)COC[C@H]1CN(CC3CCC(OC4CCN(c5ccc([C@@H]6c7ccc(O)cc7CC[C@@H]6c6ccccc6)cc5)CC4)CC3)CCN21)C1CCC(=O)NC1=O (stereo partly drawn) [ER-P-53, 3-(((R)-3-((4-((1-(4-((1R,2S)-6-hydroxy-2-phenyl-1,2,3,4-tetrahydronaphthalen-1-yl)phenyl)piperidin-4-yl)oxy)cyclohexyl)methyl)-1,2,3,4,4a,5-hexahydro-7H-benzo[e]pyrazino[2,1-c][1,4]oxazepin-9-yl)(methyl)amino)piperidine-2,6-dione]	–	10%	21%	–	18%	33%	252 nM	1310 nM
O=C1CCC(N2Cc3c(ccc4c3OCC43CCC4(CCN(C5CC6(CCN(c7ccc([C@@H]8c9ccc(O)cc9CC[C@@H]8c8ccccc8)cc7)CC6)C5)CC4)CC3)C2=O)C(=O)N1 (stereo partly drawn) [ER-P-3]	3.02 nM	25%	69%	< 0.256 nM	28%	73%	–	–
